Measured values from US20120015961A1, “ISOTHIOUREA DERIVATIVES OR ISOUREA DERIVATIVES HAVING BACE1 INHIBITORY ACTIVITY” (SHIONOGI & CO., LTD., priority 2009, published 2012).

Legend:
Recombinant human BACE1 = target: T1, Recombinant human BACE1 (Homo sapiens, UniProt P56817); assay: Assay of BACE1 inhibiting activity; assay type: biochemical; conditions: 50% inhibitory concentration against enzymatic activity, pH 5.0, 30° C., 3 hours
T1 construct: purchased R&D Systems
Summary of the method: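 Recombinant human BACE1 (7.4 nM) incubated with 18 nM biotinylated Eu-cryptate peptide substrate in pH 5.0 sodium acetate, 3 h at 30 °C. Streptavidin-XL665 added, 1 h; TR-FRET 665/620 nm ratio gives activity, from which IC50 is calculated.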

[1] = tested on: Neuroblastoma SH-SY5Y cells (SH/APPwt) with human wild-type β-APP excessively expressed; assay: Measurement of β-amyloid (Aβ) production inhibitory effect in cell; assay type: cell-based; conditions: Homo sapiens, SH-SY5Y, 24 h, amount needed to inhibit Aβ production by 50%, 24 hours incubation, Amyloid β1-40 HTRF
Summary of the method: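 SH-SY5Y cells overexpressing human wild-type β-APP exposed to compound for 24 h at 37 °C in 1% final DMSO. Secreted Aβ1-40 in supernatant measured by HTRF (overnight at 4 °C; 665/620 nm ratio). IC50 derived from at least six concentrations.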

[2] = tested on: Salmonella typhimurium (TA98 and TA100 strain); assay: FAT test; assay type: cell-based; set-up: key: (−) means that mutagenicity is negative; (+) means positive; conditions: TA98 and TA100, with and without metabolic activation system
Method: Each 20 μL of freeze-stored Salmonella typhimurium (TA98 and TA100 strain) was inoculated in 10 mL of liquid nutrient medium (2.5% Oxoid nutrient broth No. 2), and the cultures were incubated at 37° C. under shaking for 10 hours. 9 mL of TA98 culture was centrifuged (2000×g, 10 minutes) to remove medium, and the bacteria was suspended in 9 mL of Micro F buffer (K2HPO4: 3.5 g/L, KH2PO4: 1 g/L, (NH4)2SO4: 1 g/L, trisodium citrate dehydrate: 0.25 g/L, MgSO4.7H2O: 0.1 g/L), and the suspension was added to 110 mL of Exposure medium (Micro F buffer containing Biotin: 8 μg/mL, histidine: 0.2 μg/mL, glucose: 8 mg/mL). 3.16 mL of TA100 culture was added to 120 mL of Exposure medium to prepare the test bacterial solution. […] The number of the yellow wells among the 48 total wells per dose was counted, and evaluated the mutagenicity by comparing with the negative control group. […]

T1 sequence (P56817 46-501): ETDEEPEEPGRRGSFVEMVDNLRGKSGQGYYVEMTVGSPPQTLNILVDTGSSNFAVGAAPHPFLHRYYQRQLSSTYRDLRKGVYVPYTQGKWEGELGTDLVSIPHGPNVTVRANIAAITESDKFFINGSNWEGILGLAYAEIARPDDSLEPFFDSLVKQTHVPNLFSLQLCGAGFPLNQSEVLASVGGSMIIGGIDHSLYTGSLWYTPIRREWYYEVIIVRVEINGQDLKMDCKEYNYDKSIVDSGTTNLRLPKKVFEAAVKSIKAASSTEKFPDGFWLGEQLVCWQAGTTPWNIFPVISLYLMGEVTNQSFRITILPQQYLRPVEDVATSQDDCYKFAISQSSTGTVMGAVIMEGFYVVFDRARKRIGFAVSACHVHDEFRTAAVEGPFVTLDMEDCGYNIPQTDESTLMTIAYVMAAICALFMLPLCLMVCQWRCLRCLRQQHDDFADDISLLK

Question: With `CO/C(N)=N\C1(c2cccc(NC(=O)c3ccc(C#N)cn3)c2)CC1` [Compound 44] as the compound, how does the IC50 (Recombinant human BACE1) read?
Answer: ≤ 1000 nM

Question: And the IC50 [1]?
Answer: ≤ 1000 nM

Question: And the mutagenicity [2]?
Answer: (−)
